Assay results: US20250320496A1, “MODULATION OF ABCB11 GENE TRANSCRIPTION USING ANTISENSE OLIGONUCLEOTIDES TARGETING REGULATORY RNAS” (CAMP4 Therapeutics Corporation, priority 2022, published 2025)
Strand notation (5' to 3'): a small letter for the sugar, then the base; units joined by * are phosphorothioate-linked, units joined directly phosphodiester-linked; [ ] holds rarer units or linkages, { } end groups; capitals alone tell only the bases. e = 2'-O-(2-methoxyethyl) (MOE); l = locked nucleic acid (LNA); [5mC] = 5-methylcytosine; d = 2'-deoxy (DNA)

System: human ABCB11 mRNA
Assay: ASO treatment of primary human hepatocytes (PHH), ABCB11 mRNA by RT-qPCR normalized to B2M
Assay type: cell-based
Design: ABCB11 mRNA, dose titration: unit of the concentration uncertain
Conditions: for ABCB11 mRNA FC (5 μM ASO vs. UNT) / ABCB11 FC mRNA (5 μM ASO vs. untreated): primary human hepatocytes; for ABCB11 mRNA FC (5 μM ASO vs. UNT): normalized to untreated PHHs (UNT); for ABCB11 FC mRNA (5 μM ASO vs. untreated): 5 μM ASO with PO-modifications, normalized to untreated hepatocytes
Outline: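 ABCB11 mRNA was quantified by Taqman RT-qPCR relative to B2M and expressed as fold over untreated cells. Cells were cryopreserved primary human hepatocytes given ASO in Matrigel-supplemented medium 4 h after plating, at 1.25, 2.5, 5 or 10 μM (5 μM for screening), and harvested after 72 hrs.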

Row | Substance | ABCB11 mRNA FC (5 μM ASO vs. UNT) [fold change] | also measured
1 | CO-7148: derivative ASO with additional chemical modifications based on parent ASO CO-4517 (antisense e[5mC]*e[5mC]*eT*eT*eA*eG*dG*dA*dG*dG*dA*dT*dT*dA*dT*dT*eT*eA*eA*e[5mC]*e[5mC]*eT) | 1.527 | 
2 | CO-7040 (antisense eA*eA*eG*eA*eG*eG*eA*eA*eA*eG*eA*eA*e[5mC]*eT*eG*eG*e[5mC]*e[5mC]*eG*eG) | 1.267 | 
3 | CO-4012 (antisense eG*eA*eA*e[5mC]*eT*eA*e[5mC]*eA*e[5mC]*e[5mC]*eG*eA*e[5mC]*eT*eT*eT*eA*eT*e[5mC]*eT) | 1.15 | 
4 | CO-11209 (antisense eT*eGeT*eTeT*eTeG*e[5mC]eT*eTeG*eGeT*e[5mC]eA*eAeG*eAeG*eG) |  | ABCB11 FC mRNA (5 μM ASO vs. untreated): 1.11 fold change
5 | CO-6990 (antisense eT*eG*lG*eA*eT*lG*eT*eA*lG*eA*eT*lG*eA*eA*lT*eG*eG*l[5mC]*eA*eA) | 1.16 | 
6 | CO-7113 (TACATTTAGAGACAAAGAATCGCT; MOE/LNA gapmer, PS/PO backbone, 5-methylcytosine; listed as DNA; modified_base 1..24: mod_base = OTHER; note = Phosphorothioate linkage; modified_base 1..5: mod_base = OTHER; note = 2'-O-(2-methoxyethyl) ribonucleotide; misc_feature 1..5: note = RNA; misc_feature 6..7: note = DNA; misc_feature 8: note = RNA) | 1.179 | 
7 | CO-6967 (antisense eG*eA*eT*eG*eT*eA*eG*eA*eT*eG*eA*eA*eT*eG*eG*e[5mC]*eA*eA*eG*eG) | 1.405 | 
8 | CO-4024 (antisense eA*e[5mC]*eT*eT*eA*e[5mC]*eA*eG*eG*eA*eT*eG*e[5mC]*eA*eT*eT*eA*eA*eT*eG) | 0.997 | 
9 | CO-4486 (antisense eG*eG*eA*e[5mC]*eT*eG*e[5mC]*eG*eT*eG*eA*e[5mC]*eT*e[5mC]*eA*eG*eG*eT*eT*eA) | 1.151 | 
10 | CO-6986 (antisense eT*eG*eG*lA*eT*dG*dT*lA*dG*dA*dT*lG*dA*dA*dT*lG*eG*e[5mC]*eA*eA) | 0.998 | 
11 | CO-4482 (antisense eT*eA*eA*e[5mC]*eT*eG*eG*eG*eA*eG*eT*eA*eT*eA*eG*eA*eG*eG*eA*e[5mC]) | 1.001 | 
12 | CO-11199 (antisense eT*eG*eT*eTeTeTeG*e[5mC]*eT*eT*eG*eG*eT*e[5mC]eAeAeG*eA*eG*eG) |  | ABCB11 FC mRNA (5 μM ASO vs. untreated): 0.97 fold change
13 | CO-7208 (eT*eT*eT*eG*eG*e[5mC]*eG*eT*eT*eA*eT*eT*eA*eA*eT*eT*e[5mC]*eT*eA*e[5mC]*eA*eG*eA*eG; antisense) | 1.339 | 
14 | CO-7047 (antisense eG*eA*eG*eT*eT*eG*eT*eG*eT*eT*eT*eT*eG*e[5mC]*eT*eT*eG*eG*eT*e[5mC]) | 1.175 | 
15 | CO-4062 (antisense eG*eA*e[5mC]*e[5mC]*eA*eA*eT*eG*eT*eT*eG*e[5mC]*e[5mC]*eT*eA*eT*eT*eA*eT*eT) | 1.108 | 
16 | CO-7019 (antisense eA*eA*eG*eT*eG*dA*dG*eG*d[5mC]*dA*eT*d[5mC]*dA*eG*dG*dT*eA*dA*dG*eT*eT*e[5mC]*e[5mC]*eT) | 1.284 | 
17 | CO-4529: ASO targeting eRNA RR64 of human ABCB11 (antisense eG*eT*eG*eG*eA*eG*e[5mC]*eA*eA*eA*e[5mC]*eT*eA*eG*eG*e[5mC]eA*e[5mC]*eT*eG) | 1.05 | ABCB11 mRNA, dose titration (PHHs, CO-3986 and CO-4529 tested at 2.5 (unit uncertain), 5 μM, and 10 μM): dose-dependent increase
18 | CO-4057 (antisense e[5mC]*eA*eG*e[5mC]*eA*e[5mC]*eA*eA*eA*eT*eA*eT*eA*eT*eT*eG*eG*eA*eG*eG) | 1.245 | 
19 | CO-7180: derivative ASO with additional chemical modifications based on parent ASO CO-4529 (antisense eG*eT*lG*eG*eA*lG*e[5mC]*eA*lA*eA*e[5mC]*lT*eA*eG*lG*e[5mC]*eA*l[5mC]*eT*eG) | 2.04 | 
20 | CO-7001 (antisense eG*eT*eG*eA*lG*eG*e[5mC]*eA*lT*e[5mC]*eA*eG*lGeT*eA*eA*lG*eT*eT*e[5mC]) | 1.237 | 
21 | CO-3974: ASO targeting the paRNA regRNA RR63 (antisense eT*e[5mC]*eT*eG*eG*eA*eA*eA*eA*eT*eA*eA*eT*eG*e[5mC]*e[5mC]*eT*eT*eT*e[5mC]) | 1.2 | upregulation of ABCB11 mRNA (PHHs, Day 3, normalized to untreated PHHs): approximately 1.5 fold
22 | CO-4056 (antisense eG*e[5mC]*eT*eT*eA*eT*eT*eT*eG*eA*e[5mC]*eT*e[5mC]*eA*eA*eG*eA*e[5mC]*e[5mC]*eT) | 1.115 | 

Row | Substance | ABCB11 mRNA FC (5 μM ASO vs. UNT) [fold change] | also measured
23 | CO-7030 (antisense AGAATCGCTGTGGCAGTTAA; fully 2'-MOE, mixed PS/PO, 5-methylcytosine; listed as RNA; modified_base 1..20: mod_base = OTHER; note = Phosphorothioate linkage; note = 2'-O-(2-methoxyethyl) ribonucleotide; modified_base 6: mod_base = OTHER; note = 5-methyl cytidine; modified_base 8: mod_base) | 1.372 | 
24 | CO-6975 (antisense e[5mC]*eT*eG*eA*eA*eG*eT*eG*eG*eA*eG*eG*eT*eG*eG*eT*eG*eG*eA*eA) | 1.34 | 
25 | CO-4018 (antisense eA*eT*eG*eG*e[5mC]*e[5mC]*eG*eA*eA*eT*eA*eG*eA*eT*eT*eG*eA*eA*eT*eA) | 1.124 | 
26 | CO-7060 (eT*e[5mC]*eT*eG*lG*dA*dA*dA*lA*dT*dA*dA*lT*dG*d[5mC]*e[5mC]*lT*eT*eT*e[5mC]; antisense) | 1.17 | 
27 | CO-7165 (antisense eT*eT*eA*eA*eT*eT*e[5mC]*eT*eA*e[5mC]*eA*eG*eA*eG*eG*eG*eA*eG*e[5mC]*eA) | 1.329 | 
28 | CO-4511 (antisense eG*eT*eG*eG*eG*eA*eG*eT*eG*eG*eT*eA*eA*eG*eA*eT*eT*eA*eG*e[5mC]) | 1.182 | 
29 | CO-4017 (antisense e[5mC]*eT*eG*e[5mC]*eT*e[5mC]*eA*eA*eA*eG*eT*eA*eA*eA*eA*eA*eT*eA*e[5mC]*e[5mC]) | 1.228 | 
30 | CO-7163 (antisense e[5mC]*eA*eG*eA*e[5mC]*eA*eT*eG*eA*eT*eG*eT*eG*eG*eA*eG*eG*eT*eG*eG) | 1.308 | 
31 | CO-7107 (eA*e[5mC]*eA*eT*eT*eT*eA*eG*eA*eG*eA*e[5mC]*eA*eA*eA*eG*eA*eA*eT*e[5mC]*eG*e[5mC]; antisense) | 1.148 | 
32 | CO-6676 (antisense eT*eA*eA*eA*eG*e[5mC]*eA*eA*eG*e[5mC]*eT*eG*eT*eG*eT*eG*eG*eA*eA*eG) | 1.204 | 
33 | CO-11233 (antisense eG*eTlG*eGeA*lGe[5mC]*eAlA*eAe[5mC]*lTeA*eGlG*e[5mC]eA*l[5mC]eT*eG) |  | ABCB11 FC mRNA (5 μM ASO vs. untreated): 1.60 fold change
34 | CO-7210 (eT*eT*eT*eG*eG*d[5mC]*dG*lT*dT*dA*lT*dT*dA*lA*dT*dT*l[5mC]*dT*dA*e[5mC]*eA*eG*eA*eG; antisense) | 1.362 | 
35 | CO-7177 (antisense eG*eT*eG*eG*lA*dG*d[5mC]*dA*lA*dA*d[5mC]*dT*lA*dG*dG*e[5mC]*lA*e[5mC]*eT*eG) | 1.455 | 
36 | CO-11216 (antisense eG*eT*lG*eG*lAeG*l[5mC]*eA*lAeA*l[5mC]*eT*lAeG*lG*e[5mC]*lAe[5mC]*eT*eG) |  | ABCB11 FC mRNA (5 μM ASO vs. untreated): 2.58 fold change
37 | CO-7016 (antisense eA*eG*eT*eG*eA*lG*dG*d[5mC]*lA*dT*d[5mC]*dA*dG*lG*dT*dA*lA*eG*eT*eT*e[5mC]*e[5mC]) | 1.278 | 
38 | CO-11245 (antisense eG*eTeG*eGlA*eGe[5mC]*eAeA*lAe[5mC]*eTeA*eGlG*e[5mC]eA*e[5mC]eT*eG) |  | ABCB11 FC mRNA (5 μM ASO vs. untreated): 1.59 fold change
39 | CO-7088 (eA*e[5mC]*e[5mC]*e[5mC]*e[5mC]*l[5mC]*d[5mC]*dT*l[5mC]*dA*d[5mC]*l[5mC]*dT*dT*lG*eG*eT*eT*e[5mC]*e[5mC]; antisense) | 1.177 | 
40 | CO-4507 (antisense eG*eA*eA*eG*eA*eA*eT*eG*eG*eG*eA*eG*e[5mC]*eA*eA*eT*e[5mC]*e[5mC]*eG*e[5mC]) | 0.992 | 
41 | CO-7106 (eA*e[5mC]*eA*eT*eT*eT*dA*dG*dA*dG*dA*d[5mC]*dA*dA*dA*dG*eA*eA*eT*e[5mC]*eG*e[5mC]; antisense) | 1.246 | 
42 | CO-7207 (eT*eT*eT*eG*eG*e[5mC]*eG*dT*dT*dA*dT*dT*dA*dA*dT*dT*d[5mC]*eT*eA*e[5mC]*eA*eG*eA*eG; antisense) | 1.221 | 
43 | CO-4499 (antisense eA*eA*eG*eG*eA*eA*eG*eG*eT*e[5mC]*eT*eA*eG*e[5mC]*eG*eG*eA*eG*eG*eT) | 1.202 | 
44 | CO-7182: derivative ASO with additional chemical modifications based on parent ASO CO-4529 (antisense eG*eT*eG*lG*eA*eG*e[5mC]*lA*eA*eA*e[5mC]*lT*eA*eG*eG*l[5mC]*eA*e[5mC]*eT*eG) | 1.572 | 
